Where “and” joins values, the source holds several entries; their conditions need not be identical. Identical values can stand only once.
Legend:
8 bacterial strains = conditions: cited from earlier work
mosquito = conditions: in vivo; cited from earlier work
HIV replication = conditions: cited from earlier work
[1] = system: Carnation vein mottle virus (CaVMV); test: Local lesion assay of CaVMV on Chenopodium amaranticolor leaves (test half leaf vs virus+buffer control); assay type: in vivo; conditions: for Percentage Inhibition of CaVMV, IInd Treatment: compounds after extraction, summary of three experiments; for Percentage Inhibition of CaVMV, IIIrd Treatment: compounds after storing at 0° C.; for No. of Lesions on Test / % inhibition / Average No. of lesions Test / Test (number of lesions): CaVMV; for No. of Lesions on Test: 24 hrs room temperature, ten leaves; for No. of Lesions on Test / % inhibition / Average No. of lesions Test: Chenopodium amaranticolor; for Test (number of lesions): compound stored at 0° C. for two months; for antiviral activity against CaVMV (in words): components tested individually in pure form
Description: (§1) Each concentration of whole Tagetes minuta oil and its pure isolated components were applied on 10 leaves so that the average could be taken.
(§2) The whole oil of Tagetes minuta and its pure components i.e. ocimene and dihydrotagetone were tested individually with virus cultures of CaVMV and CaRSV and applied on the leaves of Chenopodium amaranticolor. In all the experiments each concentration of three testing mixtures were applied on ten leaves of Chenopodium amaranticolor palnt. The isolated compounds were stored at 0° C. for two months and the experiments were repeated.
(§3) The Cultures of Carnation ring spot and Carnation vein motto viruses were maintained both in natural host and on Phaseolus vulgaris and Chenopodium quinoa which are maintenance and propagation host of these viruses respectively. For virus culture, leaves of fifteen days old individual virus inoculated host plants with CaVMV and CaRSV were ground in phosphate buffer pH 7.5 and the viruses were extracted separately in crude sap.
(§4) Activity of the above volatile oils were tested against Carnation ring spot and Carnation vein mottle virus in different dilutions. Most of the tests were performed by using 0.5% and 2.5% concentration of essential oils as the phytotoxic effect appeared on Chenopodium amaranticolor leaves, at higher concentrations. The 0.5% and 2.5% concentration of essential oils were mixed with crude sap containing each virus and incubated at room temperature for 24 hrs. After incubation, sap containing virus were inoculated individually on bioassay host Chenopodium amaranticolor after adding Cellite (as abrasive) to monitor the inhibitory effect. Following results were obtained in different concentrations.

[2] = system: Carnation ring spot virus (CaRSV); test: Local lesion assay of CaRSV on Chenopodium amaranticolor leaves (test half leaf vs virus+buffer control); assay type: in vivo; conditions: for Percentage Inhibition of CaRSV, IInd Treatment: compounds after extraction, summary of three experiments; for Percentage Inhibition of CaRSV, IIIrd Treatment: compounds after storing at 0° C.; for No. of Lesions on Test / % inhibition / Average No. of lesions Test / Test (number of lesions): CaRSV; for No. of Lesions on Test: 24 hrs room temperature, ten leaves; for No. of Lesions on Test / % inhibition / Average No. of lesions Test: Chenopodium amaranticolor; for Test (number of lesions): compound stored at 0° C. for two months; for antiviral activity against CaRSV (in words): components tested individually in pure form
Description: as §1, §2, §3, §4

Cox B1 = conditions: concentrations 12-47 μg/ml; cited from earlier work
HSV-1 = conditions: concentrations 12-47 μg/ml; cited from earlier work
PVX [3] = conditions: susceptible viruses such as PVX; cited from earlier work
CaMV = conditions: in vivo; cited from earlier work
BGMV = conditions: in vivo; cited from earlier work
PNRSV = conditions: in vivo; cited from earlier work
SSV = conditions: in vivo; cited from earlier work
PVX [4] = conditions: cited from earlier work
TMV = conditions: except during very early replicative steps following inoculation; cited from earlier work
[5] = 0.5% concentration mixed with crude sap
[6] = 2.5% concentration mixed with crude sap

Structure (SMILES): CC12CCC(CC1)C(C)(C)O2 [1,8 cineole]
- activity against 8 bacterial strains (8 bacterial strains): exhibited activity

Structure (SMILES): C=C/C(C)=C/C(=O)C=C(C)C [5-E Ocimenone]
- mosquito larvaecideal activity (mosquito): mosquito larvaecideal activity

Structure (SMILES): CC12CCC(CC1=O)C2(C)C (stereo not shown) [Camphor, camphor]
- activity against 8 bacterial strains (8 bacterial strains): almost inactive

Structure (SMILES): CC1=CC[C@@H]([C@@H](C)[C@H]2CC[C@@]3(C)C4=C(C=C(CCC(=O)O)C(=C(C)C)C=C4)CC[C@]23C)OC1=O [Compound 3]
- therapeutic index (HIV replication; HIV replication): greater than 71.4
- EC50, inhibition of HIV replication (HIV replication): 1400 mg/L

Structure (SMILES): C=CC(C)CC(=O)CC(C)C (stereo not shown) [Dihydrotagetone, dihydrotagetone]
- Percentage Inhibition of CaVMV, IInd Treatment ([1]; 0.5%): 72.2%
- Percentage Inhibition of CaVMV, IIIrd Treatment ([1]; 0.5%): 100%
- Percentage Inhibition of CaVMV, IInd Treatment ([1]; 2.5%): 83.6%
- Percentage Inhibition of CaVMV, IIIrd Treatment ([1]; 2.5%): 100%
- No. of Lesions on Test [1, 5]: 38 and 40 and 45
- % inhibition ([1]; 0.5% concentration): 73.04% and 73.3% and 70.3%
- Average No. of lesions Test ([1]; 0.5% concentration): 4.22 and 4.44 and 5.00
- Test (number of lesions) ([1]; 0.5% concentration): 0
- No. of Lesions on Test [1, 6]: 31 and 25 and 38
- % inhibition ([1]; 2.5% concentration): 83.0% and 87.0% and 81.0%
- Average No. of lesions Test ([1]; 2.5% concentration): 3.44 and 2.77 and 4.20
- Test (number of lesions) ([1]; 2.5% concentration): 0
- antiviral activity against CaVMV (in words) [1]: enhanced antiviral activity
- Percentage Inhibition of CaRSV, IInd Treatment ([2]; 0.5%): 71.6%
- Percentage Inhibition of CaRSV, IIIrd Treatment ([2]; 0.5%): 100%
- Percentage Inhibition of CaRSV, IInd Treatment ([2]; 2.5%): 81.06%
- Percentage Inhibition of CaRSV, IIIrd Treatment ([2]; 2.5%): 100%
- No. of Lesions on Test [2, 5]: 32 and 41 and 42
- % inhibition ([2]; 0.5% concentration): 72.1% and 70.9% and 72.0%
- Average No. of lesions Test ([2]; 0.5% concentration): 4.22 and 4.44 and 5.00
- Test (number of lesions) ([2]; 0.5% concentration): 0
- % inhibition ([2]; 2.5% concentration): 81.8% and 82.0% and 79.4%
- Average No. of lesions Test ([2]; 2.5% concentration): 2.8 and 2.5 and 4.0
- Test (number of lesions) ([2]; 2.5% concentration): 0
- antiviral activity against CaRSV (in words) [2]: enhanced antiviral activity

Structure (SMILES): C=C/C(C)=C\CC=C(C)C [Ocimene, Z-β-ocimene]
- Percentage Inhibition of CaVMV, IInd Treatment ([1]; 0.5%): 70.2%
- Percentage Inhibition of CaVMV, IIIrd Treatment ([1]; 0.5%): 100%
- Percentage Inhibition of CaVMV, IInd Treatment ([1]; 2.5%): 84.3%
- Percentage Inhibition of CaVMV, IIIrd Treatment ([1]; 2.5%): 100%
- No. of Lesions on Test [1, 5]: 66 and 70 and 65
- % inhibition ([1]; 0.5% concentration): 71.05% and 63.50% and 72.1%
- Average No. of lesions Test ([1]; 0.5% concentration): 6.6 and 7.0 and 6.5
- Test (number of lesions) ([1]; 0.5% concentration): 0
- No. of Lesions on Test [1, 6]: 43 and 40 and 38
- % inhibition ([1]; 2.5% concentration): 83.58% and 84.00% and 85.66%
- Average No. of lesions Test ([1]; 2.5% concentration): 4.3 and 4.0 and 3.8
- Test (number of lesions) ([1]; 2.5% concentration): 0
- antiviral activity against CaVMV (in words) [1]: enhanced antiviral activity
- Percentage Inhibition of CaRSV, IInd Treatment ([2]; 0.5%): 67.9%
- Percentage Inhibition of CaRSV, IIIrd Treatment ([2]; 0.5%): 100%
- Percentage Inhibition of CaRSV, IInd Treatment ([2]; 2.5%): 80.9%
- Percentage Inhibition of CaRSV, IIIrd Treatment ([2]; 2.5%): 100%
- No. of Lesions on Test [2, 5]: 60 and 65 and 58
- % inhibition ([2]; 0.5% concentration): 69.6% and 66.6% and 67.7%
- Average No. of lesions Test ([2]; 0.5% concentration): 6.0 and 6.5 and 5.8
- Test (number of lesions) ([2]; 0.5% concentration): 0
- No. of Lesions on Test [2, 6]: 40 and 25 and 35
- % inhibition ([2]; 2.5% concentration): 80.4% and 81.4% and 81.0%
- Average No. of lesions Test ([2]; 2.5% concentration): 4.0 and 2.5 and 3.5
- Test (number of lesions) ([2]; 2.5% concentration): 0
- antiviral activity against CaRSV (in words) [2]: enhanced antiviral activity

Structure (SMILES): O=c1c(O)c(-c2ccccc2)oc2cc(O)cc(O)c12 [galangin]
- antiviral activity against Cox B1 (Cox B1): significant antiviral activity
- antiviral activity against HSV-1 (HSV-1): significant antiviral activity

Structure (SMILES): NC(=O)c1ncn([C@@H]2O[C@H](CO)[C@@H](O)[C@H]2O)n1 [ribavirin, Ribavirin]
- concentration needed to inhibit local lesion development and to prevent infection (PVX [3]): Approximately 1000 ppm
- effectiveness against CaMV (CaMV): relatively or completely ineffective
- effectiveness against BGMV (BGMV): relatively or completely ineffective
- susceptibility of PNRSV (PNRSV): resistant
- effectiveness against SSV (SSV): relatively or completely ineffective
- developing shoots into which virus spread was prevented (PVX [4]; 10 ppm, differentiating calli): 90%
- inhibition of PVX in callus culture (PVX [4]; 100 ppm in the medium): not inhibited
- susceptibility of TMV (TMV): much less susceptible than other viruses

Structure (SMILES): CC(C)[C@]12CC(=O)[C@H](C)[C@H]1C2 [thujone]
- activity against 8 bacterial strains (8 bacterial strains): exhibited activity
